We go through eleven molecules from PubChem BioAssay (NCI).

Molecules are shown by their SMILES.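 Assay format: 96-well plates, 48-hour exposure. The concentration for 50% growth inhibition is given as GI50. TGI: total growth inhibition.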 Where only a bound is given, the exact number is not on record here.

Some test systems named below: M14 melanoma; CCRF-CEM leukemia; HCC-2998 colon; SN12C renal; OVCAR-4 ovarian; RPMI-8226 leukemia; U251 CNS; UACC-62 melanoma; COLO 205 colon; HL-60(TB) leukemia.
Assay in all cases: NCI-60 cell line screen, 48 h

Take `COc1cc(OC)cc(-c2n[nH]nc2-c2ccc3c(c2)OCO3)c1`: the GI50 was 0.0948 µM in the test on M14 melanoma; 0.282 µM in the test on CCRF-CEM leukemia; 2.15 µM in the test on HCC-2998 colon; 2.14 µM in the test with SN12C renal; 0.763 µM with OVCAR-4 ovarian; 0.326 µM with RPMI-8226 leukemia. Also, the values for the GI50 in the test with U251 CNS and in the test on UACC-62 melanoma were 0.302 µM and 3.09 µM, respectively. For the same molecule, the TGI is 12 µM with M14 melanoma; over 100 µM in the test with CCRF-CEM leukemia; 24.6 µM in the test on HCC-2998 colon; over 100 µM in the test with SN12C renal; over 100 µM in the test with OVCAR-4 ovarian; 22.1 µM in the test on RPMI-8226 leukemia. The values for the TGI in the test on U251 CNS and with UACC-62 melanoma were 11.2 µM and 30.8 µM, respectively.

Consider `O=C1c2cc(Br)ccc2-c2c1c1ccccc1c(=O)n2CCCCl`, for which the GI50 in the test with M14 melanoma is 13.2 µM; with CCRF-CEM leukemia, 8.51 µM; in the test on HCC-2998 colon, 14.1 µM; in the test with SN12C renal, 14.1 µM; in the test with RPMI-8226 leukemia, 41.6 µM; in the test on U251 CNS, 13.5 µM. The GI50 in the test on UACC-62 melanoma is 5.65 µM. The TGI in the test on M14 melanoma was over 100 µM; in the test with CCRF-CEM leukemia it was over 100 µM; in the test with HCC-2998 colon, 71.5 µM; in the test on SN12C renal, 55.9 µM; in the test on RPMI-8226 leukemia, over 100 µM; with U251 CNS it was 36.7 µM. Moreover, the TGI with UACC-62 melanoma turned out to be 22.3 µM.

With `COC(=O)C1=C(O)C(C(=O)OC)[C@@]2(O)[C@@H](C(=O)OC)C(c3ccc(OC(=O)C(Cc4ccccc4)NC(C)=O)cc3)C[C@@H]1[C@@H]2C(=O)OC` (some centres not stated), the GI50 in the test with M14 melanoma is 20.7 µM; in the test with CCRF-CEM leukemia, 32.9 µM; with SN12C renal, 22.6 µM; in the test on COLO 205 colon it was 27.9 µM; in the test on RPMI-8226 leukemia, 20.6 µM; in the test on U251 CNS, 15.9 µM. Further, the GI50 in the test on UACC-62 melanoma is 16.1 µM. Further, the TGI in the test on M14 melanoma was 47.2 µM; with CCRF-CEM leukemia, over 100 µM; in the test on SN12C renal it was 62.1 µM; in the test with COLO 205 colon it was over 100 µM; in the test with RPMI-8226 leukemia, 71.4 µM; in the test on U251 CNS, 32.8 µM. In the test with UACC-62 melanoma, this molecule registered a TGI of 40.9 µM.

`c1ccc2c(c1)N=c1ccccc1=P21c2ccccc2Nc2ccccc21`: the TGI in the test with M14 melanoma was found to be 5.67 µM; in the test on CCRF-CEM leukemia, 0.737 µM; in the test with HCC-2998 colon, 4.06 µM; with SN12C renal it was 13.5 µM; in the test with COLO 205 colon, 0.366 µM; with OVCAR-4 ovarian, 19.9 µM. For the same molecule, the TGI in the test with RPMI-8226 leukemia is 0.616 µM; in the test with U251 CNS, 11.3 µM; with UACC-62 melanoma, over 100 µM.

As for `COc1cc(OC)c(Oc2cccc(OC)c2OC)c(OC)c1`, the TGI in the test on M14 melanoma, in the test on CCRF-CEM leukemia, in the test with HCC-2998 colon, in the test on SN12C renal, in the test with COLO 205 colon and with OVCAR-4 ovarian was over 100 µM throughout. For the same molecule, the TGI in the test with U251 CNS and in the test with UACC-62 melanoma was over 100 µM throughout.

With `Nc1nc(Cl)cc2c1ncn2C1OC(CO)C(O)C1O` (configuration not stated), the GI50 in the test with M14 melanoma, with HL-60(TB) leukemia, in the test with CCRF-CEM leukemia, with COLO 205 colon, in the test on OVCAR-4 ovarian and in the test on RPMI-8226 leukemia was over 100 µM throughout. Moreover, the GI50 in the test on U251 CNS and in the test on UACC-62 melanoma was over 100 µM in each case. For the same molecule, the TGI in the test on M14 melanoma, in the test with HL-60(TB) leukemia, in the test with CCRF-CEM leukemia, in the test with COLO 205 colon, in the test with OVCAR-4 ovarian and in the test with RPMI-8226 leukemia was over 100 µM each time. In addition, the TGI in the test on U251 CNS and in the test on UACC-62 melanoma was over 100 µM throughout.

For `COc1ccc(C2CC(c3cccc(Nc4ccnc5cc(Cl)ccc45)c3)=NN2c2ccccc2)cc1` (configuration not stated), the GI50 with M14 melanoma is 0.331 µM; in the test with HL-60(TB) leukemia, 0.282 µM; with CCRF-CEM leukemia it was 0.546 µM; with HCC-2998 colon, 0.535 µM; in the test on SN12C renal, 7.19 µM; in the test with COLO 205 colon, 1.43 µM. In addition, the GI50 was 1.27 µM in the test with RPMI-8226 leukemia and 0.051 µM in the test on UACC-62 melanoma. In addition, the TGI was 15.4 µM in the test with M14 melanoma; 17.5 µM in the test with HL-60(TB) leukemia; 37.9 µM with CCRF-CEM leukemia; 11.5 µM with HCC-2998 colon; over 100 µM with SN12C renal; 8.66 µM in the test with COLO 205 colon. Further, the TGI turned out to be 22.8 µM in the test on RPMI-8226 leukemia and 11.7 µM with UACC-62 melanoma.

Take `COC(=O)c1ccc2c(c1)[n+](=O)c(C(C)=O)c(C(F)(F)F)n2[O-]`: the GI50 in the test on M14 melanoma was 1.75 µM; with HL-60(TB) leukemia, 1.94 µM; in the test with CCRF-CEM leukemia, 4.62 µM; in the test with HCC-2998 colon, 1.78 µM; with COLO 205 colon, 1.95 µM; in the test on RPMI-8226 leukemia, 2.23 µM. Also, the GI50 in the test with U251 CNS was 1.8 µM; in the test with UACC-62 melanoma, 1.71 µM. For the same molecule, the TGI in the test with M14 melanoma is 3.2 µM; in the test on HL-60(TB) leukemia, 7.87 µM; in the test with CCRF-CEM leukemia it was over 100 µM; in the test on HCC-2998 colon it was 3.18 µM; with COLO 205 colon it was 3.95 µM; in the test on RPMI-8226 leukemia it was 6.34 µM. Moreover, the TGI in the test with U251 CNS is 3.25 µM; with UACC-62 melanoma it was 3.14 µM.

As for `O=c1c2ccccc2oc2nccnc12`, the TGI in the test on M14 melanoma, with CCRF-CEM leukemia, with HCC-2998 colon, in the test with SN12C renal, in the test on COLO 205 colon and in the test with OVCAR-4 ovarian was over 100 µM each time. Also, the TGI in the test with RPMI-8226 leukemia, with U251 CNS and with UACC-62 melanoma was over 100 µM each time.

Consider `COc1ccc(-c2ccc(/C=N/n3cnn(CN4CCN(C)CC4)c3=S)o2)c([N+](=O)[O-])c1`, for which the GI50 is 14.2 µM in the test with M14 melanoma; 17.7 µM in the test on HL-60(TB) leukemia; 11.6 µM in the test on CCRF-CEM leukemia; 52.8 µM in the test with COLO 205 colon; over 100 µM in the test on OVCAR-4 ovarian; 21.9 µM in the test with RPMI-8226 leukemia. For the same molecule, the results for the GI50 in the test with U251 CNS and in the test with UACC-62 melanoma were 23.5 µM and 16.1 µM, respectively. Also, the TGI with M14 melanoma was 60.7 µM; with HL-60(TB) leukemia, 49.9 µM; with CCRF-CEM leukemia, 94.7 µM; in the test on COLO 205 colon, over 100 µM; in the test on OVCAR-4 ovarian, over 100 µM; with RPMI-8226 leukemia, 54.2 µM. For the same molecule, the values for the TGI in the test with U251 CNS and in the test on UACC-62 melanoma were 65.7 µM and 40 µM, respectively.

For the molecule `c1cc(C2O[C@H]3CCCN3[C@@H]2c2ccncc2)ccn1` (some centres not stated), the TGI in the test on M14 melanoma, in the test on CCRF-CEM leukemia, in the test with SN12C renal, with COLO 205 colon, in the test with OVCAR-4 ovarian and in the test with RPMI-8226 leukemia was over 100 µM throughout. Besides, the TGI in the test on U251 CNS and in the test on UACC-62 melanoma was over 100 µM throughout.
